# Like-named read-outs stand apart in the source and are kept apart here.
# What was measured:
# apoptotic hepatocytes = assay type: in vivo, mice; conditions: mouse, in vivo
# Experimental: Massive hepatic apoptosis can be induced within 1–2 hr in mice following intravenous injection of anti-Fas antibody (Ogasawara J. et al., 1993, Nature, 364, 806–809). […] Five-weeks-old male BALB/c mice were injected intravenously with 10 μg/animal of purified hamster anti-Fas mAb (Jo2, PharMingen, San Diego, Calif.) using the model described by Ogasawara et. al. (Nature, 1993, 364, 806–809). […] Injections were performed at different time intervals between 5 min–2 hr after antibody treatment. […] All animals were killed 2 hr after administration of antibody followed by organ removal. Heart, lung and liver were collected. Liver were sectioned transversely across the mid-portion of each lobe; organs were fixed in phosphate-buffered formalin for histological and immunohisto-chemical analyses.
# Formalin fixed paraffin-embedded tissues were sectioned (5 μm) for staining with Hematoxylin/Eosin or other techniques. Endogenous peroxidase activity was blocked by incubation with 3% H2O2.
# After washing with PBS, staining was developed with 3,3-diaminobenzidine tetrahydrochloride (DAB), and counterstained with Hematoxylin.
# Liver sections from different lobes were used for detection of stained apoptotic cells compared to normal cells. Using light microscopy (×400), twenty fields of stained cells were evaluated. A ratio between the number of stained apoptotic hepatocytes versus stained normal hepatocytes in the field was defined. The stained cell's score (%) corresponds to the mean of the values for the twenty evaluated fields.
# The percentage of apoptotic cells in the fields was estimated by evaluating parallel sections stained with Hematoxylin/Eosin. Analysis was performed blindly, since the pathologist performing the histological evaluation was unaware of the assignment of mice to the treatment or control group.
# To quantitate the microscopic examination of the pharmacokinetics studies, the number of stained cells from 20 microscopic fields was counted.
# cardiolipin = test system: cardiolipin
# Description: The antiphospholipid antibody syndrom (APS) is a thrombophilic condition, characterized by a panel of antibodies that recognize anionic phospholipid-protein cofactor complexes. The antiphospholipid antibodies lupus anticoagulant and anticardiolipin, (present in high concentrations in SLE patients), are associated with several medical disorders including artherial and venous thrombosis, and recurrent pregnancy loss (Rand J H et al., 1998, Blood. 92, 1652–1660). […] Noncellular negatively charged phospholipid coated surface (cardiolipin) were chosen as a target for binding.
# CL, (Diphosphatidylglycerol, c-1649, Sigma), prepared at 50 μg/ml in ethanol, was added to a 96 well plate (100 μl/well) using Immunolon 4 plates (Dynatech, Chantilly, Va.) and incubated for 16–20 hr for evaporation of ethanol. As control, wells were coated with ethanol only. The coated plates were washed 3 times with 100 μl of blocking buffer (PBS containing 0.3% gelatin (Sigma) and 1 mM EDTA) to block non specific binding. A 5 min incubation time was used between each wash. Normal plasma (Ilex, Italy, 84670-11) and plasma derived from SLE patients (either from Gradipore, Australia, LAHP-1, or from Biopool, Ventura, Calif.) were prepared according to the producer's instruction. The plasma was diluted 1/10 in the blocking buffer and was added to the CL and ethanol coated wells. […] Following 3 hr incubation, the plates were washed twice with PBS/BSA buffer (0.4% bovine serum albumine (BSA) in PBS). For detection of anti cardiolipin binding property of the tested plasma, the plates were incubated with a 1/10000 dilution of Peroxidase-conjugated affinity purified Goat anti-human IgG (Jackson Immunoresearch lab.) in PBS/BSA buffer for 1 hour. The plates were then washed 3 times with PBS/BSA buffer, and color reaction was developed by incubation with 100 ul of 0-phenylenedi-amine (OPD) dihydrochloride (Sigma p-7288) at a concentration of 0.4 mg/ml in 0.05 M phosphate citrate buffer, pH 5.0 supplemented with 4 ul of 30% hydrogen peroxide (Aldrich) for 10 ml mixture. To detect the level of NST500 compounds that were bound to CL, parallel wells were incubated with streptavidin conugated to OPD (SA-OPD, Jackson Immunoresearch lab.), that specifically recognize the biotinylated NST 500 compounds. The resulting colour changes were recorded at 405 nm using a Bio Tek Elx800 Eliza reader.
substance,measurement,setting,value
Myristate-KVSFFCKNKEKKC-K (SEQ ID NO:1) (biotin) [NST513],increase in number of stained apoptotic cells as compared to non specific staining of non-apoptotic cells,apoptotic hepatocytes,3 times
same,ratio of apoptotic stained cells vs non-apoptotic cells,apoptotic hepatocytes,5 fold
same,staining of normal hepatocytes,apoptotic hepatocytes,never observed
same,staining of apoptotic hepatocytes in anti-Fas treated mice,apoptotic hepatocytes; iv,observed at cytoplasma and cytoplasmatic border of apoptotic hepatocytes
same,displacement of plasma derived from SLE patients from cardiolipin,cardiolipin; 1 μM,did not exhibit displacement
same,displacement of plasma derived from SLE patients from cardiolipin,cardiolipin; 10 μM,almost complete displacement
same,"inhibition of binding of plasma derived from SLE patients to cardiolipin, dose response",cardiolipin; 1–10 μM,marked displacement of IgG
